Laboratory results reported in the kinase profiling compilation of Christmann-Franck et al. (2016).
Where “and” joins values, the source holds several entries; their conditions need not be identical. Equal values may be shown once. Each block holds one compound with its values, some of them ahead of it.

Tests used:
Test in all cases: Caliper, Mobility shift assay off-chip
CDK6 (human) = CDK6 (human) (UniProt Q00534)
DCLK2 (human) = DCLK2 (human) (UniProt Q8N568)
PHKG1 (human) = PHKG1 (human) (UniProt Q16816)
NEK6 (human) = NEK6 (human) (UniProt Q9HC98)
EPHA3 (human) = EPHA3 (human) (UniProt P29320)
PRKAA1 (human) = PRKAA1 (human) (UniProt Q13131)
RPS6KA2 KD1 KD2 (human) = RPS6KA2 KD1 KD2 (human) (UniProt Q15349)
AKT3 (human) = AKT3 (human) (UniProt Q9Y243)
PLK3 (human) = PLK3 (human) (UniProt Q9H4B4)
PRKCA (human) = PRKCA (human) (UniProt P17252)
FRK (human) = FRK (human) (UniProt P42685)
RPS6KA5 KD1 KD2 (human) = RPS6KA5 KD1 KD2 (human) (UniProt O75582)
CDK2 (human) = CDK2 (human) (UniProt P24941)
RPS6KA1 KD1 KD2 (human) = RPS6KA1 KD1 KD2 (human) (UniProt Q15418)
PDK4 (human) = PDK4 (human) (UniProt Q16654)
RPS6KB2 (human) = RPS6KB2 (human) (UniProt Q9UBS0)
SGK2 (human) = SGK2 (human) (UniProt Q9HBY8)
ABL2 (human) = ABL2 (human) (UniProt P42684)
CSNK2A2 (human) = CSNK2A2 (human) (UniProt P19784)
IKBKB (human) = IKBKB (human) (UniProt O14920)
IRAK1 (human) = IRAK1 (human) (UniProt P51617)
PRKCZ (human) = PRKCZ (human) (UniProt Q05513)
DYRK3 (human) = DYRK3 (human) (UniProt O43781)
ROCK2 (human) = ROCK2 (human) (UniProt O75116)
AURKC (human) = AURKC (human) (UniProt Q9UQB9)
EPHB3 (human) = EPHB3 (human) (UniProt P54753)
NEK4 (human) = NEK4 (human) (UniProt P51957)
PGK1 (human) = PGK1 (human) (UniProt P00558)
NEK7 (human) = NEK7 (human) (UniProt Q8TDX7)
RPS6KB1 (human) = RPS6KB1 (human) (UniProt P23443)
AURKA (human) = AURKA (human) (UniProt O14965)
MET (human) = MET (human) (UniProt P08581)
MAPK8 (human) = MAPK8 (human) (UniProt P45983)
DYRK1A (human) = DYRK1A (human) (UniProt Q13627)

Chain of PRKAA1 (human) (Q13131 whole entry, looked up): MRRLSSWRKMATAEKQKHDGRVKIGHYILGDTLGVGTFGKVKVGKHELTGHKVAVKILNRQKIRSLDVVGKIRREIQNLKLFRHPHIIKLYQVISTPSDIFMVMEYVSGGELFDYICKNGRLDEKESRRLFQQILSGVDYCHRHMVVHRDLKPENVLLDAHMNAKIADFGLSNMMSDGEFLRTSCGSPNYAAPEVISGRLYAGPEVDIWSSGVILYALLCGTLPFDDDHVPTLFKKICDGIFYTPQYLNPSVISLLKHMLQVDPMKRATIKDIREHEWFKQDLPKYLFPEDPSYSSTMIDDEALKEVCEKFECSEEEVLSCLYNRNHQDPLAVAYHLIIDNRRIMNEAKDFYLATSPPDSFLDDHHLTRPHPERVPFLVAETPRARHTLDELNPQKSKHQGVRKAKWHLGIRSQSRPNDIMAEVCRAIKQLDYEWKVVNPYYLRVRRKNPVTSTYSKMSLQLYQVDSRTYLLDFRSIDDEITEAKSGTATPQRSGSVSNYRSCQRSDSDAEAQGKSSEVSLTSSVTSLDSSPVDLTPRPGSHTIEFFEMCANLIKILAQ
Chain of FRK (human) (P42685 whole entry, looked up): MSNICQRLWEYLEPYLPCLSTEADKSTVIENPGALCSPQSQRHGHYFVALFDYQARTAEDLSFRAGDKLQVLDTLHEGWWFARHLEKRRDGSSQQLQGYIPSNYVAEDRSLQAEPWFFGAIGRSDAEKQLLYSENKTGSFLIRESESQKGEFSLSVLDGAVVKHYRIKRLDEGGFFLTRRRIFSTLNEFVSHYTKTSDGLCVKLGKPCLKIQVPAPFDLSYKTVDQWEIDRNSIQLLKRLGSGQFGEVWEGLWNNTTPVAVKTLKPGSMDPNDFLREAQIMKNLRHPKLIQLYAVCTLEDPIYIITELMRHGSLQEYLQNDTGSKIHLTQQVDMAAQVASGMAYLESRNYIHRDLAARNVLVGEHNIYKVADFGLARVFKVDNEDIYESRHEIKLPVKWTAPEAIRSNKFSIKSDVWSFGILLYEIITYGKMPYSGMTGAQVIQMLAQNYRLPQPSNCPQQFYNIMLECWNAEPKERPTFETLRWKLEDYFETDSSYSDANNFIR
Chain of RPS6KA1 KD1 KD2 (human) (Q15418 whole entry, looked up): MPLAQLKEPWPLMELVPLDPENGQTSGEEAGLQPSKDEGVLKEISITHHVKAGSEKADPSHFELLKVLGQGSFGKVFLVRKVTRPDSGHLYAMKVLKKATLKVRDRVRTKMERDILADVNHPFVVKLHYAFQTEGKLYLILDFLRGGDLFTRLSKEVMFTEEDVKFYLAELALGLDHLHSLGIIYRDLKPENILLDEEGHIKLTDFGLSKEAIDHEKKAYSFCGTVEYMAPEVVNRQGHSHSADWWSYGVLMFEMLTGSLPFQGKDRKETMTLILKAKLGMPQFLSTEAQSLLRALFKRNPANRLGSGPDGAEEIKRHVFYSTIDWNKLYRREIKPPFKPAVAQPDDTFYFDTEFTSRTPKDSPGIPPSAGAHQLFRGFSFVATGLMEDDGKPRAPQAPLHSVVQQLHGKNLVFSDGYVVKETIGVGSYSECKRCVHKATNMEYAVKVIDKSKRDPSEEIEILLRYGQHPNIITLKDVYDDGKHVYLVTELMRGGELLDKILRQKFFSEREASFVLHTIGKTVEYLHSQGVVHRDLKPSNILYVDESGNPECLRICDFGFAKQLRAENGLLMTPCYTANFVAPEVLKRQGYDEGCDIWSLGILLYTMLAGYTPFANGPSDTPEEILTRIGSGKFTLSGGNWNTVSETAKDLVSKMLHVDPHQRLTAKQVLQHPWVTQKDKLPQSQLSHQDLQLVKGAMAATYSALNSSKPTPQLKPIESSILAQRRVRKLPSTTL
Chain of PHKG1 (human) (Q16816 whole entry, looked up): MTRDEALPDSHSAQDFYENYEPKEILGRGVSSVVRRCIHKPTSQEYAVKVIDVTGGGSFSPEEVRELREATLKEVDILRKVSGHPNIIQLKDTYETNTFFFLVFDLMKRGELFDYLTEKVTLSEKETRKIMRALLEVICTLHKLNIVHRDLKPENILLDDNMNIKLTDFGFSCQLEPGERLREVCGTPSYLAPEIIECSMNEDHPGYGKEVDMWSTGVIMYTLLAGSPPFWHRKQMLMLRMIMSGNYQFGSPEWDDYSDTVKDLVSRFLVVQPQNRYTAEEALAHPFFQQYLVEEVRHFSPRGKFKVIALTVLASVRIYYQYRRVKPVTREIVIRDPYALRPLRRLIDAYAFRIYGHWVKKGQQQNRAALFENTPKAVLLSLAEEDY
Chain of DCLK2 (human) (Q8N568 whole entry, looked up): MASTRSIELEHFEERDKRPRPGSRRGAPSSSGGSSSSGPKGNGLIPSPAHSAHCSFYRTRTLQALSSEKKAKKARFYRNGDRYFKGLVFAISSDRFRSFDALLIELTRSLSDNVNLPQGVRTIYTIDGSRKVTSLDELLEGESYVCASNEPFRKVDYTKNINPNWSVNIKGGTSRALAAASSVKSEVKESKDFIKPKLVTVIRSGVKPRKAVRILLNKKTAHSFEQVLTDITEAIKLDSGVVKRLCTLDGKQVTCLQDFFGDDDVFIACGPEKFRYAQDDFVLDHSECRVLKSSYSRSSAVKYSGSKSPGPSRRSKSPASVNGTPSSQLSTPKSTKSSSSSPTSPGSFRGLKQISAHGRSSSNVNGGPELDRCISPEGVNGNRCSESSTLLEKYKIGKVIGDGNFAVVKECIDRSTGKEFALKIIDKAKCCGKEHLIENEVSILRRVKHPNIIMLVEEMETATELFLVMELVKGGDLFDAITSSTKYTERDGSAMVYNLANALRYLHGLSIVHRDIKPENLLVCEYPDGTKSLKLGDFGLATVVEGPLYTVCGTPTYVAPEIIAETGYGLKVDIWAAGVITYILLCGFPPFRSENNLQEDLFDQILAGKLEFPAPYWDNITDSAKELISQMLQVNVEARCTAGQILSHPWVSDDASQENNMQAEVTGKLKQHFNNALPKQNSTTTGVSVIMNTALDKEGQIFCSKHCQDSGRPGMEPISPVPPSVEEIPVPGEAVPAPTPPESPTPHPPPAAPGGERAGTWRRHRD
Chain of IKBKB (human) (O14920 whole entry, looked up): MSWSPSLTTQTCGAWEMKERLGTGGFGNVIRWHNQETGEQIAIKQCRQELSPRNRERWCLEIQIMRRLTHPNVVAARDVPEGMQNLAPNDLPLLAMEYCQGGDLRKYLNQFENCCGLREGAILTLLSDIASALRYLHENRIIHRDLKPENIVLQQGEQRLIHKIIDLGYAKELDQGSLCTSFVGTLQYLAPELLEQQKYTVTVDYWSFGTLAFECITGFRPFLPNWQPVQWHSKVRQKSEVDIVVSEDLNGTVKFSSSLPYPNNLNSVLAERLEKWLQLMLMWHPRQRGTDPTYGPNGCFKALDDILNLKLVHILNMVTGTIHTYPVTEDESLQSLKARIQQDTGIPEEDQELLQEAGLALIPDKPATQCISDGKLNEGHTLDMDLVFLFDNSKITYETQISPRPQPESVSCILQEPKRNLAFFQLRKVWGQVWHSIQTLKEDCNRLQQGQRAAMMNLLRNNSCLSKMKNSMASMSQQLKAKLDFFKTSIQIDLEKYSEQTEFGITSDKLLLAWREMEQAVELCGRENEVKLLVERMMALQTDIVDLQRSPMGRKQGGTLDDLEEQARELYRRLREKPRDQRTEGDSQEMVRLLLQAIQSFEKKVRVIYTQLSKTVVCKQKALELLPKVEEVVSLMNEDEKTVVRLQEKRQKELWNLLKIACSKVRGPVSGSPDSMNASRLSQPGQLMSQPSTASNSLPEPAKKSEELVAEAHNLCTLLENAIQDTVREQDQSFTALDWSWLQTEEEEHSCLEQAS
Chain of NEK6 (human) (Q9HC98 whole entry, looked up): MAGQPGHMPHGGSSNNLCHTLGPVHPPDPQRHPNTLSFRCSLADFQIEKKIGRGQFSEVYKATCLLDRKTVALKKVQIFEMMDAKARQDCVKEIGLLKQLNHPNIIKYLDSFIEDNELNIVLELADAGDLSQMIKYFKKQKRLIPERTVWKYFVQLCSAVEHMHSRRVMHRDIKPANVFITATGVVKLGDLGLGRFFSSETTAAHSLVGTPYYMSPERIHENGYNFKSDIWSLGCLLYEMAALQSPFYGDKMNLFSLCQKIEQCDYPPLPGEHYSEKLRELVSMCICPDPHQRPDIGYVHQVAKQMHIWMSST
Chain of NEK4 (human) (P51957 whole entry, looked up): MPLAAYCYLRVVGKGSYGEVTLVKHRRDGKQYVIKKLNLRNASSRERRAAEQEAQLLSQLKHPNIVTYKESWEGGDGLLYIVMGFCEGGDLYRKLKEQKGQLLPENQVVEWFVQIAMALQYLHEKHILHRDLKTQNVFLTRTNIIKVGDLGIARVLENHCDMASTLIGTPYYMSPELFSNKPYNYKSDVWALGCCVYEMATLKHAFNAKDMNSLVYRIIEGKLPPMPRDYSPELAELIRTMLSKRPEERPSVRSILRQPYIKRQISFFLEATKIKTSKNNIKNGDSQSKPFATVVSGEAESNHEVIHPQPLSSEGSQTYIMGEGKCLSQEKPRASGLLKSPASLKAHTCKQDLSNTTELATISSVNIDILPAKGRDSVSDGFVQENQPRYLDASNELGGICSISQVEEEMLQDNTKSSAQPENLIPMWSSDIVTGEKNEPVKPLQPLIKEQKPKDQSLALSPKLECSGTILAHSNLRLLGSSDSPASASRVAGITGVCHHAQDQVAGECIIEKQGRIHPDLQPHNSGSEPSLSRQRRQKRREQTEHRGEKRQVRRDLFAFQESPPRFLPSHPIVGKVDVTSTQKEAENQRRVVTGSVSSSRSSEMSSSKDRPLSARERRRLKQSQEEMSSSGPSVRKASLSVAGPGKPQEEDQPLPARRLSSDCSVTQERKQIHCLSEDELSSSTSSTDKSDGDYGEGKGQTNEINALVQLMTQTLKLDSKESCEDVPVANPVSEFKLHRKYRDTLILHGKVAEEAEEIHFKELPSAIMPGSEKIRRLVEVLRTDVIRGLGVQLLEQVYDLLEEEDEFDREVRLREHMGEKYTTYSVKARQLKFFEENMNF

inhibition (CDK6 (human); compound 0.02 µM): 6.2%
inhibition (CDK6 (human); compound 0.2 µM): 8.2%
inhibition (DCLK2 (human); compound 0.02 µM): -1.2%
inhibition (DCLK2 (human); compound 0.2 µM): -0.9%
inhibition (PHKG1 (human); compound 0.02 µM): -1.4%
inhibition (PHKG1 (human); compound 0.2 µM): -1.9%
inhibition (NEK6 (human); compound 0.02 µM): -4.8%
inhibition (NEK6 (human); compound 0.2 µM): -1.2%
inhibition (EPHA3 (human); compound 0.02 µM): -4.8%
inhibition (EPHA3 (human); compound 0.2 µM): -4.4%
inhibition (PRKAA1 (human); compound 0.02 µM): 8%
inhibition (PRKAA1 (human); compound 0.2 µM): -10.1%
inhibition (RPS6KA2 KD1 KD2 (human); compound 0.02 µM): 6.3%
inhibition (RPS6KA2 KD1 KD2 (human); compound 0.2 µM): 8.4%
inhibition (AKT3 (human); compound 0.02 µM): -3.2%
inhibition (AKT3 (human); compound 0.2 µM): -2.6%
inhibition (PLK3 (human); compound 0.02 µM): 5.4%
inhibition (PLK3 (human); compound 0.2 µM): 5.7%
inhibition (PRKCA (human); compound 0.02 µM): -0.8%
inhibition (PRKCA (human); compound 0.2 µM): -1%
inhibition (FRK (human); compound 0.02 µM): 10.3%
inhibition (FRK (human); compound 0.2 µM): 47.3%
inhibition (RPS6KA5 KD1 KD2 (human); compound 0.02 µM): -4.7%
inhibition (CDK2 (human); compound 0.02 µM): -0.1% and -1.7%
inhibition (CDK2 (human); compound 0.2 µM): -1.7% and -2.8%
inhibition (RPS6KA1 KD1 KD2 (human); compound 0.02 µM): 0.5%
inhibition (RPS6KA1 KD1 KD2 (human); compound 0.2 µM): 5.4%
inhibition (PDK4 (human); compound 0.02 µM): -0.5%
inhibition (PDK4 (human); compound 0.2 µM): 0.8%
inhibition (RPS6KB2 (human); compound 0.02 µM): 4.3%
inhibition (RPS6KB2 (human); compound 0.2 µM): 6.7%
inhibition (SGK2 (human); compound 0.02 µM): 5.5%
inhibition (SGK2 (human); compound 0.2 µM): -0.1%
inhibition (ABL2 (human); compound 0.02 µM): 2.6%
inhibition (ABL2 (human); compound 0.2 µM): 27.6%
inhibition (CSNK2A2 (human); compound 0.02 µM): -2.8%
inhibition (CSNK2A2 (human); compound 0.2 µM): -1.4%
inhibition (IKBKB (human); compound 0.02 µM): -3.7%
inhibition (IKBKB (human); compound 0.2 µM): -2.6%
inhibition (IRAK1 (human); compound 0.02 µM): -17.4%
inhibition (IRAK1 (human); compound 0.2 µM): -14.6%
inhibition (PRKCZ (human); compound 0.02 µM): 2.5%
inhibition (PRKCZ (human); compound 0.2 µM): -1.1%
inhibition (DYRK3 (human); compound 0.02 µM): -2.2%
inhibition (DYRK3 (human); compound 0.2 µM): -1.4%
inhibition (ROCK2 (human); compound 0.02 µM): -3.7%
inhibition (ROCK2 (human); compound 0.2 µM): -1.3%
inhibition (AURKC (human); compound 0.02 µM): -0.4%
inhibition (AURKC (human); compound 0.2 µM): 21.5%
inhibition (EPHB3 (human); compound 0.02 µM): -6.1%
inhibition (EPHB3 (human); compound 0.2 µM): -4%
inhibition (NEK4 (human); compound 0.02 µM): -3.5%
inhibition (NEK4 (human); compound 0.2 µM): -0.8%
inhibition (PGK1 (human); compound 0.02 µM): -5.4%
inhibition (PGK1 (human); compound 0.2 µM): -2.2%
inhibition (NEK7 (human); compound 0.02 µM): -2.9%
inhibition (NEK7 (human); compound 0.2 µM): 0%
inhibition (RPS6KB1 (human); compound 0.02 µM): 11.1%
inhibition (RPS6KB1 (human); compound 0.2 µM): 20.6%
inhibition (AURKA (human); compound 0.02 µM): 11.5%
inhibition (AURKA (human); compound 0.2 µM): 40.7%
SMILES: Cc1ccc(Nc2nccc(N(C)c3ccc4c(C)n(C)nc4c3)n2)cc1S(N)(=O)=O

inhibition (CDK6 (human); compound 0.02 µM): 11.4%
inhibition (CDK6 (human); compound 0.2 µM): 4.1%
inhibition (DCLK2 (human); compound 0.02 µM): -1.8%
inhibition (DCLK2 (human); compound 0.2 µM): -0.5%
inhibition (PHKG1 (human); compound 0.02 µM): -5.1%
inhibition (PHKG1 (human); compound 0.2 µM): -3.5%
inhibition (NEK6 (human); compound 0.02 µM): -4.2%
inhibition (NEK6 (human); compound 0.2 µM): -3.5%
inhibition (EPHA3 (human); compound 0.02 µM): -6.9%
inhibition (EPHA3 (human); compound 0.2 µM): -1.2%
inhibition (PRKAA1 (human); compound 0.2 µM): 7.1%
inhibition (MET (human); compound 0.02 µM): 1%
inhibition (MET (human); compound 0.2 µM): 6%
inhibition (RPS6KA2 KD1 KD2 (human); compound 0.02 µM): 3.9%
inhibition (RPS6KA2 KD1 KD2 (human); compound 0.2 µM): 2.2%
inhibition (MAPK8 (human); compound 0.02 µM): -2.8%
inhibition (MAPK8 (human); compound 0.2 µM): -2.5%
inhibition (AKT3 (human); compound 0.02 µM): -3.5%
inhibition (AKT3 (human); compound 0.2 µM): -4.2%
inhibition (PLK3 (human); compound 0.02 µM): 6%
inhibition (PLK3 (human); compound 0.2 µM): 7.9%
inhibition (PRKCA (human); compound 0.02 µM): 10.1%
inhibition (PRKCA (human); compound 0.2 µM): 0.3%
inhibition (FRK (human); compound 0.02 µM): 12%
inhibition (FRK (human); compound 0.2 µM): 27.4%
inhibition (RPS6KA5 KD1 KD2 (human); compound 0.02 µM): -4.9%
inhibition (RPS6KA5 KD1 KD2 (human); compound 0.2 µM): -7.3%
inhibition (CDK2 (human); compound 0.02 µM): 1% and -0.2%
inhibition (CDK2 (human); compound 0.2 µM): -3% and -3.9%
inhibition (RPS6KA1 KD1 KD2 (human); compound 0.02 µM): -3.4%
inhibition (RPS6KA1 KD1 KD2 (human); compound 0.2 µM): -3.3%
inhibition (PDK4 (human); compound 0.02 µM): 2.7%
inhibition (PDK4 (human); compound 0.2 µM): 1.6%
inhibition (RPS6KB2 (human); compound 0.02 µM): 1%
inhibition (RPS6KB2 (human); compound 0.2 µM): 0.6%
inhibition (SGK2 (human); compound 0.02 µM): 4.4%
inhibition (SGK2 (human); compound 0.2 µM): 3.9%
inhibition (ABL2 (human); compound 0.02 µM): 5.6%
inhibition (ABL2 (human); compound 0.2 µM): 34.5%
inhibition (CSNK2A2 (human); compound 0.02 µM): -0.7%
inhibition (CSNK2A2 (human); compound 0.2 µM): -1.2%
inhibition (IKBKB (human); compound 0.02 µM): -4%
inhibition (IKBKB (human); compound 0.2 µM): -4.5%
inhibition (IRAK1 (human); compound 0.02 µM): -19.1%
inhibition (IRAK1 (human); compound 0.2 µM): -7.5%
inhibition (PRKCZ (human); compound 0.02 µM): 10.1%
inhibition (PRKCZ (human); compound 0.2 µM): 1.5%
inhibition (DYRK3 (human); compound 0.02 µM): -7.2%
inhibition (DYRK3 (human); compound 0.2 µM): -7.9%
inhibition (ROCK2 (human); compound 0.02 µM): -2.2%
inhibition (ROCK2 (human); compound 0.2 µM): -4.8%
inhibition (AURKC (human); compound 0.02 µM): -4.3%
inhibition (AURKC (human); compound 0.2 µM): -4%
inhibition (EPHB3 (human); compound 0.02 µM): -2.6%
inhibition (EPHB3 (human); compound 0.2 µM): -1.3%
inhibition (NEK4 (human); compound 0.02 µM): -3.8%
inhibition (NEK4 (human); compound 0.2 µM): -3.9%
inhibition (PGK1 (human); compound 0.02 µM): -1.4%
inhibition (PGK1 (human); compound 0.2 µM): -6.5%
inhibition (NEK7 (human); compound 0.02 µM): -3.6%
inhibition (NEK7 (human); compound 0.2 µM): -4%
inhibition (RPS6KB1 (human); compound 0.02 µM): 8.1%
inhibition (RPS6KB1 (human); compound 0.2 µM): 8.6%
inhibition (AURKA (human); compound 0.02 µM): 3.3%
inhibition (AURKA (human); compound 0.2 µM): 4.9%
inhibition (DYRK1A (human); compound 0.02 µM): 10%
inhibition (DYRK1A (human); compound 0.2 µM): -4%
SMILES: COc1cc2c(Oc3ccc4[nH]c(C)cc4c3F)ncnc2cc1OCCCN1CCCC1
